Measured values from patent publication US20230192686A1, “1H-PYRROLO[2,3-B]PYRIDINES AND PREPARATION AND USES THEREOF” (BioSplice Therapeutics, Inc., priority 2021, published 2023).

Tests used:
[1] = target: recombinant DYRK1A kinase (Homo sapiens, UniProt Q13627); assay: DYRK1A kinase assay (Ser/Thr 18 peptide Z-lyte FRET); type: biochemical; settings: DYRK1A kinase activity; 15 μM ATP, 4 μM Ser/Thr peptide 18, one hour at room temperature
How it was run: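 Recombinant DYRK1A at 0.25 μg/mL was incubated 1 h at room temperature with 15 μM ATP, 4 μM Ser/Thr 18 peptide and compound, in duplicate, 11-point series from 10 μM. Phosphorylation was read by Z-lyte FRET after 1 h protease development, as the coumarin/fluorescein emission ratio converted to % phosphorylation. IC50 by non-linear regression.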

[2] = system: Tau phosphorylation at Thr212 (pThr212); assay: Tau phosphorylation assay, phosphoTau (Thr212) AlphaLISA in HEK293T cells transfected with DYRK1A and MAPT; type: cell-based; settings: HEK-293T; HEK293T cells transfected with human DYRK1A and MAPT; compound treatment 18-24 hours; read-out: pTau (Thr212) EC50
Method: Representative compounds were screened using the assay procedure for tau phosphorylation activity described below.
HEK293T cells (ATCC, CRL3216) cultured in DMEM (Thermo Fisher Scientific, 10566024) supplemented with 10% FBS (Corning, 35-011-CV) and Penicillin/Streptomycin (Thermo Fisher Scientific, 15140163) were seeded in a 75 cm^2 flask at 8.1×10^6 cells/flask. The HEK293T cells were then transiently transfected with 5 μg DYRK1A (NM_001396) human untagged clone (OriGene, SC314641) and 2.5 μg MAPT (441 a.a. Tau gene) (NM_005910) human untagged clone (OriGene, TP313312) using Lipofectamine 3000 (Thermo Fisher Scientific, L30000015) and incubated for 20-30 hours in a humidified incubator at 37° C. and 5% CO2. Post-incubation, HEK293T cells transfected with the DYRK1A and MAPT expression vectors were harvested and seeded in BioCoat poly-D lysine coated 96-well plates (Corning, 354461) at 3×10^4 cells/well.
The above synthesized compounds were screened using the cell assay procedure to assess decreased Tau phosphorylation at Thr212 (pThr212) described below.
Each compound was dissolved in DMSO (Sigma-Aldrich, D8418-100 mL) as a 10 mM stock. 10 mM stocks were serially diluted 1:3, 10-point dose-response curve and added to the cells with a final concentration ranging from 20 μM to 1.1 nM. Cell were treated with compounds in duplicate and incubated for 18-24 hours in a humidified incubator at 37° C. and 5% CO2.
Following the overnight compound treatment, cells were lysed with 1× Alpha Surefire Ultra Lysis Buffer (Perkin Elmer, ALSU-LB-100ML) complemented with 1× Halt Phosphatase Inhibitor Cocktail (Thermo Fisher Scientific, 78427) and 1× Halt Protease Inhibitor Cocktail (Thermo Fisher Scientific, 78438). Lysates were spun down at 12,000 g for 10 min to remove any cellular debris and 5 μL of lysates were dispensed into a 384-well Opti-Plate (Perkin Elmer, 6007290) for the measurement of Tau phosphorylation in the phosphoTau (Thr212) AlphaLISA assay. Donor antibody, biotinylated HT7Tau (Thermo Fisher Scientific, MN1000B), and acceptor antibody, pThr212Tau (Thermo Fisher Scientific, 44740G) were both added to the cell lysates at a final concentration of 3 nM and incubated for 1 hour at room temperature. Following incubation of the lysates with the donor and acceptor antibodies, anti-rabbit IgG(Fc specific) AlphaLISA acceptor beads (Perkin Elmer, AL104C) were added at a 10 ug/mL final concentration and incubated for 1 hour at room temperature protected from light. Lastly, AlphaScreen streptavidin donor beads (PerkinElmer, 6760002) were added at 40 ug/mL final concentration and incubated for 1 hour at room temperature protected from light. Plates were read at Ex=[…], and Em=615 nm on the EnVision Multilabel Plate Reader (Perkin Elmer) phospho-Tau (Thr212) AlphaLISA signal was used to plot, draw the curve fitting, and determine each compound's EC50 in Prism (GraphPad).

SMILES | EC50 [1] | EC50 [2]
c1cnc2ccc(-c3c[nH]c4nc(C5CC5)ccc34)cc2c1 [Compound 1530, 6-(6-Cyclopropyl-1H-pyrrolo[2,3-b]pyridin-3-yl)quinoline] | 24 nM | 393 nM
CN1CCC(Nc2cnc3ccc(-c4c[nH]c5ncccc45)cc3n2)CC1 [Compound 92, N-(1-Methylpiperidin-4-yl)-7-(1H-pyrrolo[2,3-b]pyridin-3-yl) quinoxalin-2-amine] | 5 nM | 31 nM
c1cn2cc(-c3c[nH]c4nc(C5CC5)ccc34)ccc2n1 [Compound 1498, 6-(6-Cyclopropyl-1H-pyrrolo[2,3-b]pyridin-3-yl)imidazo[1,2-a] pyridine] | 47 nM | 441 nM
O=C(Nc1ccncc1)c1ccc2c(-c3ccc4ncccc4c3)c[nH]c2n1 [Compound 2054, N-(Pyridin-4-yl)-3-(quinolin-6-yl)-1H-pyrrolo[2,3-b]pyridine-6-carboxamide] | 51 nM | 6240 nM
CN1CCC(NC(=O)c2cnn3ccc(-c4c[nH]c5nc(-c6ccccc6)ccc45)cc23)CC1 [Compound 2018, N-(1-Methylpiperidin-4-yl)-5-(6-phenyl-1H-pyrrolo[2,3-b]pyridin-3-yl)pyrazolo[1,5-a]pyridine-3-carboxamide] | 7 nM | 8 nM
CCOc1ccc2c(-c3ccc4nccn4c3)c[nH]c2n1 [Compound 1750, 6-(6-Ethoxy-1H-pyrrolo[2,3-b]pyridin-3-yl)imidazo[1,2-a]pyridine] | 9 nM | 210 nM
Cc1nc2ncc(-c3c[nH]c4ncccc34)cc2n1C(C)C [Compound 25, 1-Isopropyl-2-methyl-6-(1H-pyrrolo[2,3-b]pyridin-3-yl)-1H-imidazo[4,5-b]pyridine] | 1 nM | 16 nM
Cc1nc2c(F)cc(-c3c[nH]c4nc(C5CC5)ccc34)cc2n1C1CCN(C)CC1 [Compound 1502, 6-(6-cyclopropyl-1H-pyrrolo[2,3-b]pyridin-3-yl)-4-fluoro-2-methyl-1-(1-methylpiperidin-4-yl)-1H-benzo[d]imidazole] | 5 nM | 936 nM
CN1CCC(NC(=O)c2cnn3ccc(-c4c[nH]c5nc(C6CC6)ccc45)cc23)CC1 [Compound 1514, 5-(6-Cyclopropyl-1H-pyrrolo[2,3-b]pyridin-3-yl)-N-(1-methylpiperidin-4-yl)pyrazolo[1,5-a]pyridine-3-carboxamide] | 5 nM | 82 nM
C[C@@H](NC(=O)c1cnn2ccc(-c3c[nH]c4nc(C5CC5)ccc34)cc12)C(F)(F)F [Compound 1513, (R)-5-(6-Cyclopropyl-1H-pyrrolo[2,3-b]pyridin-3-yl)-N-(1,1,1-trifluoropropan-2-yl)pyrazolo[1,5-a]pyridine-3-carboxamide] | 91 nM | 374 nM
CN1CCN(c2ccc(NC(=O)c3cnc4[nH]cc(-c5ccc6nccnc6c5)c4c3)cn2)CC1 [Compound 817, N-(6-(4-Methylpiperazin-1-yl)pyridin-3-yl)-3-(quinoxalin-6-yl)-1H-pyrrolo[2,3-b]pyridine-5-carboxamide] | 8 nM | 210 nM
O=C1NCc2cc(-c3c[nH]c4nc(C5CC5)ccc34)ccc21 [Compound 1522, 5-(6-Cyclopropyl-1H-pyrrolo[2,3-b]pyridin-3-yl)isoindolin-1-one] | 12 nM | 25 nM
O=C1NCCc2cc(-c3c[nH]c4nc(C5CC5)ccc34)ccc21 [Compound 1526, 6-(6-Cyclopropyl-1H-pyrrolo[2,3-b]pyridin-3-yl)-3,4-dihydroisoquinolin-1(2H)-one] | 10 nM | 73 nM
O=C(c1cnn2ccc(-c3c[nH]c4ncccc34)cc12)N1CCC(N2CCOCC2)CC1 [Compound 107, (5-(1H-Pyrrolo[2,3-b]pyridin-3-yl)pyrazolo[1,5-a]pyridin-3-yl)(4-morpholinopiperidin-1-yl)methanone] | 8 nM | 396 nM
Cn1cc(-c2cnn3ccc(-c4c[nH]c5ncccc45)cc23)cn1 [Compound 37, 3-(3-(1-Methyl-1H-pyrazol-4-yl)pyrazolo[1,5-a]pyridin-5-yl)-1H-pyrrolo[2,3-b]pyridine] | 1 nM | 6 nM
CN1CCC(NC(=O)c2cnn3ccc(-c4c[nH]c5nc(CC6CCC6)ccc45)cc23)CC1 [Compound 1640, 5-(6-(Cyclobutylmethyl)-1H-pyrrolo[2,3-b]pyridin-3-yl)-N-(1-methylpiperidin-4-yl)pyrazolo[1,5-a]pyridine-3-carboxamide] | 6 nM | 199 nM
